What is called inhibition is the relative decrease from the control value, in per cent. What is called MIC is the lowest concentration that inhibits growth of the organism.

In brackets after ≈: the same amount, converted by molar mass.

This is an account of results in ChEMBL document CHEMBL4732126, “Design, synthesis, and biodistribution studies of new analogues of marine alkaloids: Potent in vitro and in vivo fungicidal agents against Candida spp” (Eur J Med Chem, 2021).

Holding throughout (assay type): functional
Assay [1] relates to Candida albicans. Put plainly: Antibiofilm activity against Candida albicans ATCC 10231 assessed as reduction in mature biofilm at 125 ug/ml incubated for 48 hrs by crystal violet staining based spectrophotometric analysis relative to control. The conditions noted are these: dose 125.0 µg/ml.
In assay [2] the test system is Candida albicans. Briefly: Fungicidal activity against Candida albicans ATCC 10231 assessed as fungal killing incubated for 48 hrs followed by plating on SD agar plate.
The test system of assay [3] is Pichia kudriavzevii. Briefly: Fungicidal activity against Candida krusei ATCC 34135 assessed as fungal killing incubated for 48 hrs followed by plating on SD agar plate.
The subject of assay [4] is Candida albicans. Briefly: Fungicidal activity against Candida albicans isolate 7 assessed as fungal killing incubated for 48 hrs followed by plating on SD agar plate.
Assay [5] relates to Candida albicans. Put plainly: Antifungal activity against Candida albicans isolate 11 assessed as reduction in fungal growth incubated for 48 hrs by broth microdilution method. (In broth dilution the organism is exposed to a series of concentrations in liquid medium.)
The subject of assay [6] is Candida albicans. Briefly: Antifungal activity against Candida albicans isolate 9 assessed as reduction in fungal growth incubated for 48 hrs by broth microdilution method.
For assay [7], the system named is Candida albicans. Put plainly: Antifungal activity against Candida albicans isolate 6 assessed as reduction in fungal growth incubated for 48 hrs by broth microdilution method.
The test system of assay [8] is Nakaseomyces glabratus. Briefly: Antifungal activity against Candida glabrata ATCC 2001 assessed as reduction in fungal growth incubated for 48 hrs in presence of ergosterol by broth microdilution method.
The test system of assay [9] is Candida albicans. Put plainly: Fungicidal activity against Candida albicans isolate 11 assessed as fungal killing incubated for 48 hrs followed by plating on SD agar plate.
The subject of assay [10] is Candida albicans. Put plainly: Antifungal activity against Candida albicans isolate 10 assessed as reduction in fungal growth incubated for 48 hrs by broth microdilution method.
The test system of assay [11] is Candida albicans. Put plainly: Antifungal activity against Candida albicans isolate 12 assessed as reduction in fungal growth incubated for 48 hrs by broth microdilution method.
In assay [12] the test system is Candida albicans. Put plainly: Fungicidal activity against Candida albicans isolate 8 assessed as fungal killing incubated for 48 hrs followed by plating on SD agar plate.
Assay [13] deals with Candida tropicalis. Briefly: Fungicidal activity against Candida tropicalis ATCC 28707 assessed as fungal killing incubated for 48 hrs followed by plating on SD agar plate.
Assay [14] concerns Candida albicans. Put plainly: Antifungal activity against Candida albicans isolate 7 assessed as reduction in fungal growth incubated for 48 hrs by broth microdilution method.
In assay [15] the test system is Candida albicans. Briefly: Fungicidal activity against Candida albicans ATCC 18804 assessed as fungal killing incubated for 48 hrs followed by plating on SD agar plate.
The test system of assay [16] is Nakaseomyces glabratus. Put plainly: Fungicidal activity against Candida glabrata ATCC 2001 assessed as fungal killing incubated for 48 hrs followed by plating on SD agar plate.
Assay [17] concerns Candida albicans. Briefly: Antifungal activity against Candida albicans ATCC 10231 assessed as reduction in fungal growth incubated for 48 hrs in presence of ergosterol by broth microdilution method.
Assay [18] deals with Candida albicans. Put plainly: Fungicidal activity against Candida albicans isolate 9 assessed as fungal killing incubated for 48 hrs followed by plating on SD agar plate.
Assay [19] relates to Candida albicans. Put plainly: Fungicidal activity against Candida albicans isolate 10 assessed as fungal killing incubated for 48 hrs followed by plating on SD agar plate.
Assay [20] deals with Candida albicans. Put plainly: Antifungal activity against Candida albicans isolate 8 assessed as reduction in fungal growth incubated for 48 hrs by broth microdilution method.
The test system of assay [21] is Candida albicans. Put plainly: Antifungal activity against Candida albicans ATCC 18804 assessed as reduction in fungal growth incubated for 48 hrs by broth microdilution method.
The subject of assay [22] is Candida albicans. Put plainly: Fungicidal activity against Candida albicans isolate 13 assessed as fungal killing incubated for 48 hrs followed by plating on SD agar plate.
The test system of assay [23] is Nakaseomyces glabratus. Put plainly: Antifungal activity against Candida glabrata ATCC 2001 assessed as reduction in fungal growth incubated for 48 hrs by broth microdilution method.
For assay [24], the system named is Candida albicans. Briefly: Fungicidal activity against Candida albicans isolate 12 assessed as fungal killing incubated for 48 hrs followed by plating on SD agar plate.
Assay [25] has as its system Pichia kudriavzevii. Put plainly: Antifungal activity against Candida krusei ATCC 34135 assessed as reduction in fungal growth incubated for 48 hrs in presence of ergosterol by broth microdilution method.
Assay [26] relates to Candida albicans. Put plainly: Antifungal activity against Candida albicans ATCC 10231 assessed as reduction in fungal growth incubated for 48 hrs by broth microdilution method.
Assay [27] has as its system Candida tropicalis. Briefly: Antifungal activity against Candida tropicalis ATCC 28707 assessed as reduction in fungal growth incubated for 48 hrs by broth microdilution method.
For assay [28], the system named is Candida albicans. Briefly: Antifungal activity against Candida albicans isolate 13 assessed as reduction in fungal growth incubated for 48 hrs by broth microdilution method.
In assay [29] the test system is Candida tropicalis. Put plainly: Antifungal activity against Candida tropicalis ATCC 28707 assessed as reduction in fungal growth incubated for 48 hrs in presence of ergosterol by broth microdilution method.
The test system of assay [30] is Candida albicans. Briefly: Fungicidal activity against Candida albicans isolate 6 assessed as fungal killing incubated for 48 hrs followed by plating on SD agar plate.
Assay [31] concerns Pichia kudriavzevii. Put plainly: Antifungal activity against Candida krusei ATCC 34135 assessed as reduction in fungal growth incubated for 48 hrs by broth microdilution method.
Assay [32] relates to Nakaseomyces glabratus. Put plainly: Antifungal activity against Candida glabrata ATCC 2001 assessed as reduction in fungal growth incubated for 48 hrs in presence of sorbitol by broth microdilution method.
The subject of assay [33] is Candida albicans. Briefly: Antifungal activity against Candida albicans ATCC 10231 assessed as reduction in fungal growth incubated for 48 hrs in presence of sorbitol by broth microdilution method.
Assay [34] has as its system Pichia kudriavzevii. Briefly: Antifungal activity against Candida krusei ATCC 34135 assessed as reduction in fungal growth incubated for 48 hrs in presence of sorbitol by broth microdilution method.
The test system of assay [35] is Candida tropicalis. Briefly: Antifungal activity against Candida tropicalis ATCC 28707 assessed as reduction in fungal growth incubated for 48 hrs in presence of sorbitol by broth microdilution method.

In the case of NYSTATIN, the inhibition with Candida albicans [1] turned out to be 25%. Besides, the MFC99.9 worked out at 4 mg/L in the assay on Candida albicans [2]; 8 mg/L with Pichia kudriavzevii [3]; 4 mg/L in the assay on Candida albicans [4]; 4 mg/L with Candida albicans [9]; 4 mg/L in the assay with Candida albicans [12]; 2 mg/L with Candida tropicalis [13]. Further, the MFC99.9 in the assay with Candida albicans [15] stood at 4 mg/L; with Nakaseomyces glabratus [16], 4 mg/L; in the assay with Candida albicans [18] it was 4 mg/L; in the assay with Candida albicans [19], 4 mg/L; in the assay on Candida albicans [22], 2 mg/L; with Candida albicans [24], 4 mg/L. The MFC99.9 with Candida albicans [30] amounted to 4 mg/L. Moreover, the MIC in the assay on Candida albicans [5] turned out to be 4 mg/L; in the assay on Candida albicans [6], 4 mg/L; with Candida albicans [7], 4 mg/L; in the assay with Nakaseomyces glabratus [8], 31.2 mg/L; in the assay with Candida albicans [10], 4 mg/L; in the assay with Candida albicans [11], 2 mg/L. Moreover, the minimal inhibitory concentration (MIC) with Candida albicans [14] was 4 mg/L; with Candida albicans [17], 31.2 mg/L; with Candida albicans [20], 4 mg/L; in the assay with Candida albicans [21], 4 mg/L; with Nakaseomyces glabratus [23], 4 mg/L; with Pichia kudriavzevii [25], 31.2 mg/L. Further, the minimum inhibitory concentration (MIC) in the assay on Candida albicans [26] is 4 mg/L; with Candida tropicalis [27] it was 2 mg/L; with Candida albicans [28], 2 mg/L; with Candida tropicalis [29] it was 3.9 mg/L; in the assay with Pichia kudriavzevii [31] it was 8 mg/L.
With `CC[C@H](C)C[C@H](C)CCCCCCCCC(=O)N[C@H]1C[C@@H](O)[C@@H](NCCN)NC(=O)[C@@H]2[C@@H](O)CCN2C(=O)[C@H]([C@H](O)CCN)NC(=O)[C@H]([C@H](O)[C@@H](O)c2ccc(O)cc2)NC(=O)[C@@H]2C[C@@H](O)CN2C(=O)[C@H]([C@@H](C)O)NC1=O` [CASPOFUNGIN], the minimum inhibitory concentration (MIC) came out at 1 mg/L in the assay on Nakaseomyces glabratus [32]; 15.6 mg/L with Candida albicans [33]; 0.25 mg/L with Pichia kudriavzevii [34]; 0.5 mg/L (≈ 0.457 µM) in the assay with Nakaseomyces glabratus [23]; 4 mg/L (≈ 3.66 µM) with Candida albicans [26]; 0.0625 mg/L (≈ 0.0572 µM) with Candida tropicalis [27]. In addition, the results for the MIC in the assay with Candida tropicalis [35] and in the assay with Pichia kudriavzevii [31] were 0.25 mg/L and 0.0625 mg/L (≈ 0.0572 µM), respectively.
